# Like-named read-outs stand apart in the source and are kept apart here. *1 amine or outer side, *2 acyl side, *3 side chain or, on linkers, in order; H or OH if unused. Where a SMILES comes first, the peptide text is derived from it. Side-chain parts run from the residue outwards. [ ]: non-standard residue; d: D form. The star is where a group is joined. Decanoyl(10-(4-HOOC-PhO)) = O=C(O)c1ccc(OCCCCCCCCCC(=O)*)cc1; αMePhe(2-F) = C[C@](N)(Cc1ccccc1F)C(=O)O; γGlu = O=C(O)[C@H](CCC(=O)[*:2])N[*:1]; αMeY = C[C@](N)(Cc1ccc(O)cc1)C(=O)O; 4Pal = N[C@@H](Cc1ccncc1)C(=O)O; αMeL = CC(C)C[C@](C)(N)C(=O)O; Orn = NCCC[C@H](N)C(=O)O; AEEA = NCCOCCOCC(=O)O; Aib = CC(C)(N)C(=O)O
# Experiments:
# Format in all cases: cell-based
# hGIPR = molecular target: T1, hGIPR (Homo sapiens, UniProt P48546); assay: Functional cAMP formation (HTRF) in HEK-293 clonal cells expressing hGIPR, 0.1% bovine casein, without or with 1.0% human serum albumin; settings: for EC50: geometric mean
# T1 construct: expressed in transfected cells
# T1 sequence (P48546 22-466): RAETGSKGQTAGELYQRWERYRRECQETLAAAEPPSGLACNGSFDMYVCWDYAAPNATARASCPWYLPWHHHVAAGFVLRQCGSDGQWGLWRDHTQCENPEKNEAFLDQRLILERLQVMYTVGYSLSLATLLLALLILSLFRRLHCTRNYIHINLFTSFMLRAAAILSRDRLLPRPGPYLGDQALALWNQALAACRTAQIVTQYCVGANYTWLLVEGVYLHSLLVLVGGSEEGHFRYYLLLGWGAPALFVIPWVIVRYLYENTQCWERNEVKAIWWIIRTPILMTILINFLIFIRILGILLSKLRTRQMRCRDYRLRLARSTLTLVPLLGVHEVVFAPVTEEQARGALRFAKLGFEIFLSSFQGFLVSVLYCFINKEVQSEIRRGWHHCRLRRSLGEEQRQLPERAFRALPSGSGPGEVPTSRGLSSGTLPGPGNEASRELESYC
# Method in brief: (§1)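 Cells were stimulated with peptide for 30 min at 37° C, then lysed in buffer carrying cAMP-d2 and anti-cAMP Eu3+-cryptate for a competitive HTRF read after at least 60 min at room temperature. The 665/620 nm ratio was converted to nM cAMP against a standard curve.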
# hGCGR = molecular target: T2, hGCGR (Homo sapiens, UniProt P47871); assay: Functional cAMP formation (HTRF) in HEK-293 clonal cells expressing hGCGR, 0.1% bovine casein, without or with 1.0% human serum albumin
# T2 construct: expressed in transfected cells
# Method in brief: as §1
# hGLP-1R = hGLP-1R (Homo sapiens, UniProt P43220); assay: Functional cAMP formation (HTRF) in HEK-293 clonal cells expressing hGLP-1R, 0.1% bovine casein, without or with 1.0% human serum albumin; design: expressed in transfected cells; settings: for Emax: percent of maximal response to GLP-1(7-36)NH2; for EC50: geometric mean
# Method in brief: as §1
# [1] = HEK293, read-out: hGIPR Emax, % ± SEM, cAMP, 37° C., 0.1% bovine casein, percent of maximal response to GIP(1-42)NH2, arithmetic mean
# [2] = hGIPR EC50, nM (SEM, n), cAMP, 37° C., 0.1% bovine casein (no human serum albumin)
# [3] = hGCGR EC50, nM (SEM, n), cAMP, 37° C., 0.1% bovine casein (no human serum albumin), geometric mean
# [4] = hGLP-1R EC50, nM (SEM, n), cAMP, 37° C., 0.1% bovine casein (no human serum albumin)
# Chain of hGLP-1R (P43220 24-463): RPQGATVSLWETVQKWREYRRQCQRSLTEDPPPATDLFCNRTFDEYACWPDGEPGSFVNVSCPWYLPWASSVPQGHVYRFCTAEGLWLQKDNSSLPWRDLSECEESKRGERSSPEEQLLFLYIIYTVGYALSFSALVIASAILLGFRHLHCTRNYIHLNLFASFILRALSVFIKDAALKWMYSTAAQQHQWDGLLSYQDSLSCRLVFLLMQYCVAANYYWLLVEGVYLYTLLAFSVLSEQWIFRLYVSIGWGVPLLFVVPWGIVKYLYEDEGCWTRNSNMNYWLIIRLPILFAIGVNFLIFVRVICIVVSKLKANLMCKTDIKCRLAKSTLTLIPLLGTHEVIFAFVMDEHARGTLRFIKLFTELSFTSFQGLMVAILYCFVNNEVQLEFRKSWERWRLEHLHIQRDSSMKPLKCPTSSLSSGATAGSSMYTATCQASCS
# T2 sequence (P47871 26-477): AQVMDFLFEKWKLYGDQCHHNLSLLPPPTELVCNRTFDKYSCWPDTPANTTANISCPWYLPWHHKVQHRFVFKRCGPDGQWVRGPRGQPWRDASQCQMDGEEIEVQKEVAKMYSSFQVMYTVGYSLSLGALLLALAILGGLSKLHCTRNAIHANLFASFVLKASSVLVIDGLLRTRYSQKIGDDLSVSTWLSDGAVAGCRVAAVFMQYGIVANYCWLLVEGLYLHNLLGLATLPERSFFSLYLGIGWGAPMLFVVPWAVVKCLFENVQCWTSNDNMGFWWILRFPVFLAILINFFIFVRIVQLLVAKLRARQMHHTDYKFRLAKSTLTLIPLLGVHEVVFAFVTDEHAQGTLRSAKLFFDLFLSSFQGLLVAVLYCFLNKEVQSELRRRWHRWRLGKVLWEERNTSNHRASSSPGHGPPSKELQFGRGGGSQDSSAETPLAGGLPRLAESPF
smiles,measurement,setting,value
CC[C@H](C)[C@H](NC(=O)[C@H](CCCN)NC(=O)[C@H](CC(=O)O)NC(=O)[C@H](CC(C)C)NC(=O)[C@](C)(CC(C)C)NC(=O)[C@@H](NC(=O)C(C)(C)NC(=O)[C@H](Cc1ccncc1)NC(=O)[C@H](CC(=O)O)NC(=O)[C@H](CO)NC(=O)[C@@H](NC(=O)[C@](C)(Cc1ccccc1F)NC(=O)[C@@H](NC(=O)CNC(=O)[C@H](CCC(=O)O)NC(=O)C(C)(C)NC(=O)[C@@H](N)Cc1ccc(O)cc1)[C@@H](C)O)[C@@H](C)O)[C@@H](C)CC)C(=O)N[C@@H](C)C(=O)N[C@@H](CCC(N)=O)C(=O)NC(C)(C)C(=O)N[C@@H](CCC(=O)O)C(=O)N[C@@H](Cc1ccccc1)C(=O)N[C@H](C(=O)N[C@@H](CCCCNC(=O)COCCOCCNC(=O)COCCOCCNC(=O)CC[C@H](NC(=O)CCCCCCCCCCOc1ccc(C(=O)O)cc1)C(=O)O)C(=O)N[C@@](C)(Cc1ccc(O)cc1)C(=O)N[C@@H](CC(C)C)C(=O)N[C@H](C(=O)N[C@@H](CCCCNC(=O)COCCOCCNC(=O)COCCOCCNC(=O)CC[C@H](NC(=O)CCCCCCCCCCOc1ccc(C(=O)O)cc1)C(=O)O)C(=O)NCC(=O)NCC(=O)N1CCC[C@H]1C(=O)N[C@@H](CO)C(=O)N[C@@H](CO)C(=O)NCC(=O)N[C@@H](C)C(=O)N1CCC[C@H]1C(=O)N1CCC[C@H]1C(=O)N1CCC[C@H]1C(=O)N[C@@H](CO)C(N)=O)[C@@H](C)CC)[C@@H](C)CC [Example 311],Emax,"hGIPR; HEK293, read-out: hGIPR Emax, % ± SEM, 0.1% bovine casein and 1.0% human serum albumin, 37° C., percent of maximal response to GIP(1-42)NH2",98.3%
same,Emax,hGIPR; [1],105%
same,EC50,"hGIPR; hGIPR EC50, nM (SEM, n), 0.1% bovine casein and 1.0% human serum albumin, 37° C.",2.16 nM
same,EC50,hGIPR; [2],0.0243 nM
same,EC50,"hGCGR; hGCGR EC50, nM (SEM, n), 0.1% bovine casein and 1.0% human serum albumin, 37° C., geometric mean",> 9950 nM
same,EC50,hGCGR; [3],> 9950 nM
same,Emax,"hGLP-1R; HEK293, read-out: hGLP-1R Emax, % ± SEM, cAMP, 37° C., 0.1% bovine casein, arithmetic mean",110%
same,EC50,hGLP-1R; [4],0.791 nM
CC[C@H](C)[C@H](NC(=O)[C@H](CCCN)NC(=O)[C@H](CC(=O)O)NC(=O)[C@H](CC(C)C)NC(=O)[C@](C)(CC(C)C)NC(=O)[C@@H](NC(=O)C(C)(C)NC(=O)[C@@H](NC(=O)[C@H](CC(=O)O)NC(=O)[C@H](CO)NC(=O)[C@@H](NC(=O)[C@](C)(Cc1ccccc1F)NC(=O)[C@@H](NC(=O)CNC(=O)[C@H](CCC(=O)O)NC(=O)C(C)(C)NC(=O)[C@@H](N)Cc1ccc(O)cc1)[C@@H](C)O)[C@@H](C)O)C(C)C)[C@@H](C)CC)C(=O)N[C@@H](C)C(=O)N[C@@H](CCC(N)=O)C(=O)NC(C)(C)C(=O)N[C@@H](CCCCNC(=O)COCCOCCNC(=O)COCCOCCNC(=O)CC[C@H](NC(=O)CCCCCCCCCCCCC(=O)O)C(=O)O)C(=O)N[C@@H](Cc1ccccc1)C(=O)N[C@H](C(=O)N[C@H](CCC(=O)O)C(=O)N[C@@](C)(Cc1ccc(O)cc1)C(=O)N[C@@H](CC(C)C)C(=O)N[C@H](C(=O)N[C@@H](CCCCNC(=O)COCCOCCNC(=O)COCCOCCNC(=O)CC[C@H](NC(=O)CCCCCCCCCCCCC(=O)O)C(=O)O)C(=O)NCC(=O)NCC(=O)N1CCC[C@H]1C(=O)N[C@@H](CO)C(=O)N[C@@H](CO)C(=O)NCC(=O)N[C@@H](C)C(=O)N1CCC[C@H]1C(=O)N1CCC[C@H]1C(=O)N1CCC[C@H]1C(=O)N[C@@H](CO)C(N)=O)[C@@H](C)CC)[C@@H](C)CC [Example 329],Emax,"hGIPR; HEK293, cAMP, 37° C., 0.1% bovine casein and 1.0% human serum albumin, percent of maximal response to GIP(1-42)NH2, read-out: hGIPR Emax, % ± SEM",100%
same,Emax,"hGIPR; HEK293, cAMP, 37° C., 0.1% bovine casein, percent of maximal response to GIP(1-42)NH2, arithmetic mean, read-out: hGIPR Emax, % ± SEM",109%
same,EC50,"hGIPR; cAMP, 37° C., 0.1% bovine casein (no human serum albumin), read-out: hGIPR EC50, nM (SEM, n)",0.015 nM
same,EC50,"hGCGR; cAMP, 37° C., 0.1% bovine casein (no human serum albumin), geometric mean, read-out: hGCGR EC50, nM (SEM, n)",> 9950 nM
same,EC50,"hGCGR; cAMP, 37° C., 0.1% bovine casein and 1.0% human serum albumin, geometric mean (SEM, n), read-out: hGCGR EC50, nM (SEM, n)",> 9950 nM
same,Emax,"hGLP-1R; HEK293, cAMP, 37° C., 0.1% bovine casein and 1.0% human serum albumin, read-out: hGLP-1R Emax, % ± SEM",88.3%
same,EC50,"hGLP-1R; cAMP, 37° C., 0.1% bovine casein (no human serum albumin), read-out: hGLP-1R EC50, nM (SEM, n)",0.353 nM
CC[C@H](C)[C@H](NC(=O)[C@H](CC(C)C)NC(=O)[C@](C)(Cc1ccc(O)cc1)NC(=O)[C@@H](CCC(=O)O)NC(=O)[C@@H](NC(=O)[C@H](Cc1ccccc1)NC(=O)[C@H](CCC(=O)O)NC(=O)C(C)(C)NC(=O)[C@H](CCC(N)=O)NC(=O)[C@H](C)NC(=O)[C@H](CCCCNC(=O)COCCOCCNC(=O)COCCOCCNC(=O)CCCCCCCCCCCCC(=O)O)NC(=O)[C@H](CCCN)NC(=O)[C@H](CC(=O)O)NC(=O)[C@H](CC(C)C)NC(=O)[C@](C)(CC(C)C)NC(=O)[C@@H](NC(=O)[C@H](CO)NC(=O)[C@H](Cc1ccncc1)NC(=O)[C@H](CC(=O)O)NC(=O)[C@H](CO)NC(=O)[C@@H](NC(=O)[C@](C)(Cc1ccccc1F)NC(=O)[C@@H](NC(=O)CNC(=O)[C@H](CCC(=O)O)NC(=O)C(C)(C)NC(=O)[C@@H](N)Cc1ccc(O)cc1)[C@@H](C)O)[C@@H](C)O)[C@@H](C)CC)[C@@H](C)CC)C(=O)N[C@@H](CCCCNC(=O)COCCOCCNC(=O)COCCOCCNC(=O)CCCCCCCCCCCCC(=O)O)C(=O)NCC(=O)NCC(=O)N1CCC[C@H]1C(=O)N[C@@H](CO)C(=O)N[C@@H](CO)C(=O)NCC(=O)N[C@@H](C)C(=O)N1CCC[C@H]1C(=O)N1CCC[C@H]1C(=O)N1CCC[C@H]1C(=O)N[C@@H](CO)C(N)=O [Example 210],EC50,"hGIPR; 0.1% bovine casein and 1.0% human serum albumin, 37° C., read-out: hGIPR EC50, nM (SEM, n)",0.44 nM
same,Emax,"hGIPR; HEK293, 0.1% bovine casein and 1.0% human serum albumin, 37° C., percent of maximal response to GIP(1-42)NH2, read-out: hGIPR Emax, % ± SEM",68.1%
same,Emax,"hGIPR; HEK293, percent of maximal response to GIP(1-42)NH2, 37° C., 0.1% bovine casein, arithmetic mean, read-out: hGIPR Emax, % ± SEM",92.1%
same,EC50,"hGCGR; 0.1% bovine casein and 1.0% human serum albumin, 37° C., geometric mean, read-out: hGCGR EC50, nM (SEM, n)",> 9950 nM
same,EC50,"hGCGR; cAMP, incubated at 37° C., 0.1% bovine casein (no human serum albumin), geometric mean, read-out: hGCGR EC50, nM (SEM, n)",> 9950 nM
same,EC50,"hGLP-1R; 0.1% bovine casein and 1.0% human serum albumin, 37° C., read-out: hGLP-1R EC50, nM (SEM, n)",8.86 nM
CC[C@H](C)[C@H](NC(=O)[C@H](CCCN)NC(=O)[C@H](CC(=O)O)NC(=O)[C@H](CC(C)C)NC(=O)[C@](C)(CC(C)C)NC(=O)[C@@H](NC(=O)C(C)(C)NC(=O)[C@H](Cc1ccncc1)NC(=O)[C@H](CC(=O)O)NC(=O)[C@H](CO)NC(=O)[C@@H](NC(=O)[C@](C)(Cc1ccccc1F)NC(=O)[C@@H](NC(=O)CNC(=O)[C@H](CCC(=O)O)NC(=O)C(C)(C)NC(=O)[C@@H](N)Cc1ccc(O)cc1)[C@@H](C)O)[C@@H](C)O)[C@@H](C)CC)C(=O)N[C@@H](C)C(=O)N[C@@H](CCC(N)=O)C(=O)NC(C)(C)C(=O)N[C@@H](CCCN)C(=O)N[C@@H](Cc1ccccc1)C(=O)N[C@H](C(=O)N[C@@H](CCCCNC(=O)COCCOCCNC(=O)COCCOCCNC(=O)CC[C@H](NC(=O)CCCCCCCCCOc1ccc(C(=O)O)cc1)C(=O)O)C(=O)N[C@@](C)(Cc1ccc(O)cc1)C(=O)N[C@@H](CC(C)C)C(=O)N[C@H](C(=O)N[C@@H](CCCCNC(=O)COCCOCCNC(=O)COCCOCCNC(=O)CC[C@H](NC(=O)CCCCCCCCCOc1ccc(C(=O)O)cc1)C(=O)O)C(=O)NCC(=O)NCC(=O)N1CCC[C@H]1C(=O)N[C@@H](CO)C(=O)N[C@@H](CO)C(=O)NCC(=O)N[C@@H](C)C(=O)N1CCC[C@H]1C(=O)N1CCC[C@H]1C(=O)N1CCC[C@H]1C(=O)N[C@@H](CO)C(N)=O)[C@@H](C)CC)[C@@H](C)CC [Example 354] (H-Y[Aib]EGT[αMePhe(2-F)]TSD[4Pal][Aib]I[αMeL]LD[Orn]IAQ[Aib][Orn]FIK([AEEA-AEEA-γGlu-Decanoyl(10-(4-HOOC-PhO))])[αMeY]LIK([AEEA-AEEA-γGlu-Decanoyl(10-(4-HOOC-PhO))])GGPSSGAPPPS-NH2),Emax,"hGIPR; HEK293, read-out: hGIPR Emax, % ± SEM, cAMP, 37° C., 0.1% bovine casein and 1.0% human serum albumin, percent of maximal response to GIP(1-42)NH2",67.5%
same,Emax,hGIPR; [1],95.4%
same,EC50,hGIPR; [2],0.0249 nM
same,EC50,hGCGR; [3],> 9950 nM
same,EC50,"hGCGR; hGCGR EC50, nM (SEM, n), cAMP, 37° C., 0.1% bovine casein and 1.0% human serum albumin, geometric mean (SEM, n)",> 9950 nM
same,Emax,"hGLP-1R; HEK293, read-out: hGLP-1R Emax, % ± SEM, cAMP, 37° C., 0.1% bovine casein and 1.0% human serum albumin",95.9%
same,EC50,hGLP-1R; [4],0.505 nM
